Laboratory results: patent publication US10844044B2 (Vanderbilt University, priority 2018, dated 2020)
Where two headings read alike, the source gives them in different places.

Columns and labels:
WDR5 = WDR5 (Homo sapiens (Human), UniProt P61964); assay: TR-FRET binding assay (displacement of 10mer-Thr-FAM probe from WDR5); conditions: read-out: Ki for Inhibition of WDR5 by TR-FRET assay
[1] = test system: MV4:11 human cancer cell lines; assay: Anti-proliferative activity, CellTiter-Glo viability assay, 7 day protocol; assay type: cell-based; conditions: MV4:11 cells, 7 day incubation, read-out: GI50 on cellular proliferation of MV4:11 human cancer cell lines
How it was run: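 MV4:11 cells seeded at 3600 cells/ml and exposed to compounds for 7 days, 0.1% DMSO final. Viability measured by CellTiter-Glo luminescence. GI50 from three biological replicates, each in technical triplicate, given as mean ± S.E.M.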

[2] = TR-FRET, 10mer-Thr-FAM probe, WDR5-His tag 2 nM, pH 7.0

Compound | Ki (WDR5; [2]) [µM] | GI50 ([1]; Homo sapiens, MV4-11, 168 h) [µM] | Ki (WDR5) [µM] | GI50 [1] [µM]
Cc1ncccc1-c1cc(Cn2ccn(C)c2=N)cc(C(=O)NCc2ncc(Cl)cn2)c1 [Example 44, N-((5-Chloropyrimidin-2-yl)methyl)-3-((2-imino-3-methyl-2,3-dihydro-1H-imidazol-1-yl)methyl)-5-(2-methylpyridin-3-yl)benzamide] | 0.0092 | 22 |  | 
COc1cc(OC)cc(C(NC(=O)c2cc(Cn3ccn(C)c3=N)cc(-c3ncccc3C(F)(F)F)c2)C2CC2)c1 (centres unmarked) [Example 61, N-(Cyclopropyl(3,5-dimethoxyphenyl)methyl)-3-((2-imino-3-methyl-2,3-dihydro-1H-imidazol-1-yl)methyl)-5-(3-(trifluoromethyl)pyridin-2-yl)benzamide] | 0.0028 | 4.2 |  | 
Cc1ncccc1-c1cc(Cn2ccn(C)c2=N)cc(C(=O)NC(C2CC2)C2CC2)c1 [Example 39, N-(Dicyclopropylmethyl)-3-((2-imino-3-methyl-2,3-dihydro-1H-imidazol-1-yl)methyl)-5-(2-methylpyridin-3-yl)benzamide] | 0.017 | 30 |  | 
Cc1cc([C@@H](NC(=O)c2cc(Cn3ccccc3=N)cc(-c3cn(C)nc3C(F)(F)F)c2)C2CC2)ccc1F [Example 352, (S)—N-(cyclopropyl(4-fluoro-3-methylphenyl)methyl)-3-((2-iminopyridin-1(2H)-yl)methyl)-5-(1-methyl-3-(trifluoromethyl)-1H-pyrazol-4-yl)benzamide] | < 0.0001 | < 0.1 |  | 
Cc1cccc(C2(NC(=O)c3cc(Cn4ccn(C)c4=N)cc(-c4cn(C)nc4C(F)(F)F)c3)CCC2)c1 [Example 220, 3-((2-Imino-3-methyl-2,3-dihydro-1H-imidazol-1-yl)methyl)-5-(1-methyl-3-(trifluoromethyl)-1H-pyrazol-4-yl)-N-(1-(m-tolyl)cyclobutyl)benzamide] | < 0.0001 | 0.22 |  | 
N—((S)-Cyclopropyl(4-fluoro-3-methylphenyl)methyl)-2-ethoxy-5-((3-fluoro-2-iminopyridin-1(2H)-yl)methyl)-3-(1-methyl-3-(trifluoromethyl)-1,3-dihydro-2λ2-pyrazol-4-yl)benzamide [Example 348] |  |  | < 0.0001 | < 0.1
Cc1cc([C@@H](NC(=O)c2cc(CN3CCCC3=N)cc(-c3ccc(F)cc3C(F)(F)F)c2)C2CC2)ccc1F [Example 335, (S)—N-(Cyclopropyl(4-fluoro-3-methylphenyl)methyl)-4′-fluoro-5-((2-iminopyrrolidin-1-yl)methyl)-2′-(trifluoromethyl)-[1,1′-biphenyl]-3-carboxamide] | < 0.0001 | < 0.1 |  | 
Cc1cc([C@@H](NC(=O)c2cc(Cn3ccn(C4CC4)c3=N)cc(-c3cccnc3C(F)(F)F)c2)C2CC2)ccc1F [Example 115, (S)—N-(Cyclopropyl(4-fluoro-3-methylphenyl)methyl)-3-((3-cyclopropyl-2-imino-2,3-dihydro-1H-imidazol-1-yl)methyl)-5-(2-(trifluoromethyl)pyridin-3-yl)benzamide] | < 0.0001 | < 0.1 |  | 
Cc1cn(Cc2cc(C(=O)N[C@H](c3ccc(F)c(C)c3)C3CC3)cc(-c3cccnc3C(F)(F)F)c2)c(=N)o1 [Example 250, (S)—N-(Cyclopropyl(4-fluoro-3-methylphenyl)methyl)-3-((2-imino-5-methyloxazol-3(2H)-yl)methyl)-5-(2-(trifluoromethyl)pyridin-3-yl)benzamide] | 0.0004 | 0.57 |  | 
CCOc1c(C(=O)N[C@H](c2ccc(F)c(C)c2)C2CC2)cc(Cn2ccccc2=N)cc1-c1cn(C)nc1C(F)(F)F [Example 347, (S)—N-(Cyclopropyl(4-fluoro-3-methylphenyl)methyl)-2-ethoxy-5-((2-iminopyridin-(2H)-yl)methyl)-3-(1-methyl-3-(trifluoromethyl)-1H-pyrazol-4-yl)benzamide] | < 0.0001 | < 0.1 |  | 
